{
  "source": "patent EP3098228A1",
  "about": "“POLYOXOMOLYBDATE-BISPHOSPHONATE COMPLEX CONTAINING A HETEROMETALLIC ION DIFFERENT FROM MOLYBDENUM” (CENTRE NATIONAL DE LA RECHERCHE SCIENTIFIQUE, priority 2015, dated 2016)",
  "key": {"MCF-7 [1]": {"system": "MCF-7", "conditions": "literature values, cited from earlier work"}, "[2]": {"system": "Human tumor cell lines MCF-7 (breast adenocarcinoma)", "experiment": "Cell-growth inhibition assay (MTT cell proliferation assay, 4 days)", "format": "cell-based", "conditions": "MCF-7, 4 days incubation", "procedure": "Cells were plated at a density of 5000 cells/well.\nResults are gathered in table 3 hereinafter. The results are shown on a molar basis (IC50 values, in µM) as well as on a per-bisphosphonate basis, which is more logical when comparisons are to be made with the pure bisphosphonates."}, "MCF-7 [3]": {"system": "MCF-7", "experiment": "Cell growth \"rescue\" experiments with geranylgeraniol (GGOH)", "format": "cell-based, Human", "procedure": "Addition of geranylgeraniol (GGOH) was tested on Mo4Zol2Mn.\nProtocol Cell growth \"rescue\" experiments with geranylgeraniol were carried out as described previously, and namely in Y. Zhang, et al J. Am. Chem. Soc. 2009, 131, 51.\nAn increase in the IC50 indicates a direct role for the bisphosphonate moiety in cell growth inhibition."}, "[4]": {"experiment": "Solubility in water (remark in the solid state NMR section)", "format": "physicochemical", "excerpt": "The broadening could be due either to the low crystallinity in Mo12(AlePy)4Pt4 and/or, a dynamic disorder, since we also observe a much less efficient CP transfer in CPMAS experiments when compared with Mo12(AlePy)4."}, "[5]": {"conditions": "measurement conditions not strictly identical to Table 3, read-out: IC50"}, "[6]": {"conditions": "per bisphosphonate, read-out: IC50 per BP"}},
  "note": "Where two headings read alike, the source gives them in different places.",
  "data": [
    {"molecule": "NCCCC(O)(P(=O)(O)O)P(=O)(O)O", "note": "[Ale, alendronate]", "values": [
      {"measurement": "IC50", "setting": "MCF-7 [1]; [5]", "value": "130 ± 2.2", "unit": "µM"},
      {"measurement": "IC50", "setting": "MCF-7 [1]; [6]", "value": 130, "unit": "µM"}
    ]},
    {"molecule": "[Cl][Mn][Cl]", "note": "[MnCl2]", "values": [
      {"measurement": "IC50", "setting": "[2]; molar basis, listed as Mn(II)Cl2, read-out: IC50", "value": "~740", "unit": "µM"},
      {"measurement": "IC50", "setting": "[2]; molar basis, read-out: IC50", "value": "740 ± 140", "unit": "µM"}
    ]},
    {"molecule": "O=P(O)(O)C(O)(Cn1ccnc1)P(=O)(O)O", "note": "[Zol, zoledronate]", "values": [
      {"measurement": "IC50", "setting": "[2]; Homo sapiens, MCF7, 96 h, molar basis, read-out: IC50", "value": "15 ± 2.6", "unit": "µM"},
      {"measurement": "IC50", "setting": "[2]; Homo sapiens, MCF7, 96 h, per-bisphosphonate basis, read-out: IC50 per BP", "value": "15 ± 2.6", "unit": "µM"},
      {"measurement": "IC50", "setting": "MCF-7 [3]; Homo sapiens, MCF7, with addition of geranylgeraniol (GGOH), read-out: IC50 +GGOH", "value": 48, "unit": "µM"},
      {"measurement": "IC50", "setting": "MCF-7 [3]; Homo sapiens, MCF7, without GGOH, read-out: IC50", "value": 15, "unit": "µM"},
      {"measurement": "IC50", "setting": "MCF-7 [1]; [5]", "value": "7.7 ± 2.6", "unit": "µM"},
      {"measurement": "IC50", "setting": "MCF-7 [1]; [6]", "value": 7.7, "unit": "µM"}
    ]},
    {"molecule": "Na3{Na(Mo3O8)4[O3PCC3H6NH2CH2(C5H5N)(O)PO3]4} .25H20 [Mo12(AlePy)4]", "values": [
      {"measurement": "solubility in water", "setting": "[4]", "value": "essentially insoluble in water"}
    ]},
    {"molecule": "Rb(NH4)4[(Mo2O6)2(O3PC(CH2C3H4N2)(O)PO3)2Mn].14H2O [Mo4Zol2Mn]", "values": [
      {"measurement": "IC50", "setting": "[2]; molar basis, read-out: IC50", "value": "1.3 ± 0.24", "unit": "µM"},
      {"measurement": "IC50", "setting": "[2]; per-bisphosphonate basis, read-out: IC50 per BP", "value": "2.6 ± 0.48", "unit": "µM"},
      {"measurement": "IC50", "setting": "MCF-7 [3]; with addition of geranylgeraniol (GGOH), read-out: IC50 +GGOH", "value": 7.6, "unit": "µM"},
      {"measurement": "IC50", "setting": "MCF-7 [3]; without GGOH, read-out: IC50", "value": 1.3, "unit": "µM"}
    ]}
  ]
}
